One data set has as its system RPMI8226 cells. Briefly: Cell proliferation assay (WST assay, Cell Counting Kit-8), myeloma cell strain RPMI8226. It is filed as cell-based. The conditions noted are these: 4 days of incubation, concentration yielding 50% inhibition of cell proliferation. As to the method:
The CO2 concentration (%) in a CO2 incubator is expressed by the ratio of CO2 in the atmosphere in vol %.
Myeloma cell strain RPMI8226 (DS Pharma Biomedical Co., Ltd.) was incubated in liquid culture in a CO2 incubator (5% CO2) in RPMI1640 medium containing 10% (v/v) fetal calf serum. The resulting cells were suspended in RPMI640 medium(GIBCO) containing 10% (v/v) fetal calf serum and plated in 96-well flat-bottomed microplates (Corning Incorporated) in 100 μl/mL ([…]) per well. Furtheremore, each of the compounds prepared in Synthetic Examples was dissolved in dimethylsulfoxide and added at 0.1% (v/v) to final concentrations of 0.1 to 10 μg/mL. As the negative control, dimethyl sulfoxide was added at 0.1% (v/v).
After 4 days of incubation at 37° C. in liquid culture in a CO2 incubator (5% CO2), the viable cells were counted by the WST assay. A 10-μl aliquot of Cell Counting Kit-8 reagent solution (Dojindo Molecular Technologies, Inc.) was added to each well and incubated in a CO2 incubator (5% CO2) for 4 hours for color reaction, and light absorbance was measured at 450 nm by using a microplate reader. As the cell growth inhibitory activities in the presence of the test compounds relative to that in the absence of them (negative control), the concentrations (IC50) yielding 50% inhibition of cell proliferation were calculated.
On the technique in general: Tetrazolium assays rely on reduction of a dye to a coloured formazan, in cell work by metabolically active cells.

[1] abbreviates: Homo sapiens, RPMI-8226, 96 h, read-out: IC50.

In general, IC50 refers to the concentration that inhibits the measured activity by half. The term melting point denotes the temperature of the solid-liquid transition.

In brackets after ≈: the same amount, converted by molar mass. Read-outs that look alike come from different tables or passages of the source.

As to `CC(C)C1=NN(C(C)(C)Cc2ccccc2)C(=O)C1Br` (stereo not shown) [Compound No. 3-47, 4-bromo-3-isopropyl-1-(2-methyl-1-phenylpropan-2-yl)-1H-pyrazol-5(4H)-one], the IC50 in the data set on RPMI8226 cells (setting [1]) was 3.3 µg/mL (≈ 9.78 µM).

In the case of `CCCCCCc1ccc(-c2c(C(C)C)nn(C(C)(C)Cc3ccc(C)cc3)c2O)cc1` [Compound No. 3-07, 4-(4-hexylphenyl)-3-isopropyl-1-(2-methyl-1-p-tolylpropan-2-yl)-1H-pyrazol-5-ol], the IC50 in the data set on RPMI8226 cells amounted to 5.3 µg/mL (≈ 12.3 µM); with RPMI8226 cells (setting [1]), 8.8 µg/mL (≈ 20.3 µM).

With `CC(C)c1nn(C(C)(C)Cc2ccccc2)c(O)c1C(=O)c1ccccc1` [Compound No. 4-71, (5-hydroxy-3-isopropyl-1-(2-methyl-1-phenylpropan-2-yl)-1H-pyrazol-4-yl)(phenyl)methanone], in the data set with RPMI8226 cells (setting [1]), the IC50 was 3.2 µg/mL (≈ 8.83 µM).

Turning to `COc1cc(-c2ccccc2)nn1C(C)(C)c1ccccc1` [Compound No. 3-13, 5-methoxy-3-phenyl-1-(2-phenylpropan-2-yl)-1H-pyrazole], the half-maximal inhibitory concentration (IC50) in the data set with RPMI8226 cells (setting [1]) amounted to 5.4 µg/mL (≈ 18.5 µM).

In the case of `CC(C)(Cc1ccccc1)N1N=C(c2ccccc2)CC1=O` [Compound No. 3-16, 1-(2-methyl-1-phenylpropan-2-yl)-3-phenyl-1H-pyrazol-5(4H)-one], the half-maximal inhibitory concentration (IC50) in the data set on RPMI8226 cells (setting [1]) is 3.5 µg/mL (≈ 12 µM).

As for `COC(=O)c1ccc(-c2c(C(C)C)nn(C(C)(C)Cc3ccccc3)c2O)cc1` [Compound No. 4-23, methyl 4-(5-hydroxy-3-isopropyl-1-(2-methyl-1-phenylpropan-2-yl)-1H-pyrazol-4-yl)benzoate], the IC50 in the data set on RPMI8226 cells (setting [1]) came to 6.3 µg/mL (≈ 16.1 µM).

As to `CON=C(C)c1c(C(C)C)nn(C(C)(C)Cc2ccccc2)c1O` [Compound No. 4-89, 1-(5-Hydroxy-3-isopropyl-1-(2-methyl-1-phenylpropan-2-yl)-1H-pyrazol-4-yl)ethanone O-methyl oxime], the IC50 in the data set with RPMI8226 cells (setting [1]) was 4.7 µg/mL (≈ 14.3 µM).

For `CCCCCCc1ccc(-c2c(C#N)nn(C(C)(C)Cc3ccc(C)cc3)c2O)cc1` [Compound No. 4-86, 4-(4-Hexylphenyl)-5-hydroxy-1-(2-methyl-1-(p-tolyl)propan-2-yl)-1H-pyrazole-3-carbonitrile], the melting point fell in the range of 140 to 142 °C. Also, the IC50 in the data set with RPMI8226 cells (setting [1]) is 3.3 µg/mL (≈ 7.94 µM).

For the compound `CC(C)C1=NN(C(C)(C)Cc2ccc(Br)cc2)C(=O)C1` [Compound No. 3-12, 1-(1-(4-bromophenyl)-2-methylpropan-2-yl)-3-isopropyl-1H-pyrazol-5(4H)-one], the 50% inhibitory concentration (IC50) in the data set with RPMI8226 cells (setting [1]) came out at 5.4 µg/mL (≈ 16 µM).

Turning to `CCOC(=O)c1c(C(C)C)nn(C(C)(C)c2ccccc2)c1O` [Compound No. 4-27, ethyl 5-hydroxy-3-isopropyl-1-(2-phenylpropan-2-yl)-1H-pyrazole-4-carboxylate], in the data set with RPMI8226 cells (setting [1]), the 50% inhibitory concentration (IC50) was 5.5 µg/mL (≈ 17.4 µM).

As to `CCCCCCc1ccc(-c2cnn(C(C)(C)Cc3ccc(C)cc3)c2O)cc1` [Compound No. 4-90, 4-(4-Hexylphenyl)-1-(2-methyl-1-(p-tolyl)propan-2-yl)-1H-pyrazol-5-ol], the melting point lay within 149 to 151 °C. The IC50 with RPMI8226 cells (setting [1]) was 5.5 µg/mL (≈ 14.1 µM).

As for `COC(=O)CC1=NN(C(C)(C)c2ccccc2)C(=O)C1` [Compound No. 4-01, methyl 2-(5-oxo-1-(2-phenylpropan-2-yl)-4,5-dihydro-1H-pyrazol-3-yl)acetate], the IC50 with RPMI8226 cells (setting [1]) turned out to be 11.1 µg/mL (≈ 40.5 µM).

Turning to `COc1c(C)c(-c2ccccc2)nn1C(C)(C)c1ccccc1` [Compound No. 3-14, 5-methoxy-4-methyl-3-phenyl-1-(2-phenylpropan-2-yl)-1H-pyrazole], the IC50 in the data set on RPMI8226 cells (setting [1]) worked out at 7.9 µg/mL (≈ 25.8 µM).

Source of the values: patent US8658686B2, “Pyrazole compounds having therapeutic effect on multiple myeloma” (Nissan Chemical Industries, Ltd., priority 2010, dated 2014).
